Measurements published in PubChem BioAssay AID256 (DTP/NCI, 2004).
“And” between values parts separate entries of the source, which are not always exact repeats. Identical values can stand only once. Toxic doses and inconclusive results are not listed. How the source made its calls: active means survival T/C of 150% or more; inactive means T/C below 125% in these data.

System: CD2F1 mice, L1210 leukemia ip, survival T/C
Test: NCI In Vivo Anticancer Drug Screen. Data for tumor model L1210 Leukemia (intraperitoneal) in CD2F1 (CDF1) mice
Conditions: endpoint: mean survival time, higher = longer survival
Outline: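 Implant tumor; dose compound or vehicle; measure endpoint in both groups; report treated divided by control.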

[1] = dose: 100.0 mg/kg/injection, schedule: Q01DX009 (ip), vehicle: saline with Tween-80
[2] = dose: 200.0 mg/kg/injection, schedule: Q01DX009 (ip), vehicle: saline with Tween-80
[3] = dose: 400.0 mg/kg/injection, schedule: Q01DX009 (ip), vehicle: saline with Tween-80
[4] = dose: 100.0 mg/kg/injection, schedule: Q04DX003 (ip), vehicle: saline with Tween-80
[5] = dose: 50.0 mg/kg/injection, schedule: Q01DX009 (ip), vehicle: saline with Tween-80
[6] = dose: 200.0 mg/kg/injection, schedule: Q04DX003 (ip), vehicle: saline with Tween-80
[7] = dose: 400.0 mg/kg/injection, schedule: Q04DX003 (ip), vehicle: saline with Tween-80
[8] = dose: 100.0 mg/kg/injection, schedule: Q04DX003 (ip), vehicle: saline
[9] = dose: 200.0 mg/kg/injection, schedule: Q04DX003 (ip), vehicle: saline
[10] = dose: 400.0 mg/kg/injection, schedule: Q04DX003 (ip), vehicle: saline

Measured: T/C

O=C1c2ccccc2C(O)(c2[nH]nc3ccccc23)N1c1ccccc1 (configuration not stated)
inactive: dose: 50.0 mg/kg/injection, schedule: Q04DX002 (ip), vehicle: saline with Tween-80 103 % of control | dose: 100.0 mg/kg/injection, schedule: Q04DX002 (ip), vehicle: saline with Tween-80 103 % of control | dose: 200.0 mg/kg/injection, schedule: Q04DX002 (ip), vehicle: saline with Tween-80 113 % of control | dose: 400.0 mg/kg/injection, schedule: Q04DX002 (ip), vehicle: saline with Tween-80 106 % of control

CN(C)C(=O)N(CCCl)N=O
active: dose: 16.0 mg/kg/injection, schedule: Q01DX001 (ip), vehicle: other 176 % of control | dose: 20.0 mg/kg/injection, schedule: Q01DX001 (ip), vehicle: other 306 % of control | dose: 32.0 mg/kg/injection, schedule: Q01DX001 (ip), vehicle: other 570 % of control | dose: 40.0 mg/kg/injection, schedule: Q01DX001 (ip), vehicle: other 318 % of control

CCCCCCCCCCCCCCCCC1CCCC1C1CCCC1 (configuration not stated)
inactive: dose: 100.0 mg/kg/injection, schedule: Q01DX001 (ip), vehicle: saline sonified 102 % of control | dose: 200.0 mg/kg/injection, schedule: Q01DX001 (ip), vehicle: saline sonified 101 % of control | dose: 400.0 mg/kg/injection, schedule: Q01DX001 (ip), vehicle: saline sonified 96 % of control

COc1cc(NC(C)=O)ccn1
inactive: [1] 95 % of control | [2] 96 % of control | [3] 102 % of control

Cc1ccc(-n2c(=S)[nH]c3ccccc3c2=O)cc1
inactive: [4] 100 % of control

Cc1ccc(NC(=O)Nc2ccc(S(N)(=O)=O)cc2)cc1C
inactive: [5] 96 % of control | [1] 87 % of control | [2] 87 % of control

Cc1ccc(CN(C)N=Nc2ccc(C(=O)O)cc2)cc1
inactive: dose: 25.0 mg/kg/injection, schedule: Q01DX009 (ip), vehicle: other 91 % of control | dose: 50.0 mg/kg/injection, schedule: Q01DX009 (ip), vehicle: other 87 % of control | dose: 100.0 mg/kg/injection, schedule: Q01DX009 (ip), vehicle: other 91 % of control | dose: 200.0 mg/kg/injection, schedule: Q01DX009 (ip), vehicle: other 87 % of control

CON(C)C(=O)N1c2ccccc2Sc2ccccc21
inactive: [4] 87 % of control | [6] 87 % of control

CC1(C)C2=CCCC3(OCCO3)C2(C)CCC1O (configuration not stated)
inactive: [1] 104 % of control | [4] 98 % of control | [2] 106 % of control | [6] 98 % of control | [3] 98 % of control | [7] 101 % of control

Cc1cccc(Br)[n+]1[O-]
inactive: [8] 92 % of control | [9] 101 % of control

O=C(O)C1CCC=CCC1
inactive: dose: 100.0 mg/kg/injection, schedule: Q04DX003 (ip), vehicle: other 103 % of control | dose: 200.0 mg/kg/injection, schedule: Q04DX003 (ip), vehicle: other 94 % of control | dose: 400.0 mg/kg/injection, schedule: Q04DX003 (ip), vehicle: other 89 % of control

S=c1nc(-c2ccccc2)c(-c2ccccc2)n[nH]1
inactive: dose: 75.0 mg/kg/injection, schedule: Q01DX009 (ip), vehicle: saline 93 % of control | dose: 150.0 mg/kg/injection, schedule: Q01DX009 (ip), vehicle: saline 98 % of control

CCCCCC/C=C/C(O)CC (configuration not stated)
inactive: [8] 100 % of control | [9] 95 % of control | [10] 103 % of control

COc1ccc(C=C2C(=O)C=CC2=O)cc1OC
inactive: dose: 5.0 mg/kg/injection, schedule: Q04DX002 (ip), vehicle: saline with Tween-80 103 % of control | dose: 10.0 mg/kg/injection, schedule: Q04DX002 (ip), vehicle: saline with Tween-80 103 % of control

CC(=O)O[C@@H]1CO[C@H]2O[C@H]3[C@@H](C(C=O)=C[C@H](O)[C@@H]4C5=C(C(C)C)CC[C@]5(C)CC[C@@]34C)[C@@]2(O)C1=O
inactive: dose: 0.75 mg/kg/injection, schedule: Q01DX009 (ip), vehicle: Klucel (hydroxypropylcellulose) (HPC) 104 % of control | dose: 1.5 mg/kg/injection, schedule: Q01DX009 (ip), vehicle: Klucel (hydroxypropylcellulose) (HPC) 104 % of control | dose: 3.0 mg/kg/injection, schedule: Q01DX009 (ip), vehicle: Klucel (hydroxypropylcellulose) (HPC) 104 % of control | dose: 6.0 mg/kg/injection, schedule: Q01DX009 (ip), vehicle: Klucel (hydroxypropylcellulose) (HPC) 107 % of control

CCCC(C#CCN(C)C)N(C)C (configuration not stated)
inactive: dose: 12.5 mg/kg/injection, schedule: Q01DX009 (ip), vehicle: saline 97 % of control | dose: 25.0 mg/kg/injection, schedule: Q01DX009 (ip), vehicle: saline 97 % of control | dose: 50.0 mg/kg/injection, schedule: Q01DX009 (ip), vehicle: saline 98 % of control

O=C(O)C(=O)O.[NH-]CC1CCCC[N-]1.[Pt+2] (configuration not stated)
active: dose: 12.5 mg/kg/injection, schedule: Q04DX003 (ip), vehicle: saline with Tween-80 164 % of control | dose: 25.0 mg/kg/injection, schedule: Q04DX003 (ip), vehicle: saline with Tween-80 201 % of control | dose: 50.0 mg/kg/injection, schedule: Q04DX003 (ip), vehicle: saline with Tween-80 238 % of control

CCCCNCCCC
inactive: [8] 97 % of control

CCN(CC)CCOc1ccc(C2=CC3(CCCCC3)c3ccccc32)cc1
inactive: dose: 12.5 mg/kg/injection, schedule: Q04DX002 (ip), vehicle: saline with Tween-80 106 % of control | dose: 25.0 mg/kg/injection, schedule: Q04DX002 (ip), vehicle: saline with Tween-80 98 % of control

CC/C(C)=C(/C(=O)O)c1ccccc1
inactive: [1] 95 % of control | [2] 98 % of control | [3] 97 % of control

NC(=O)c1ncn(C2CC3[O][Sn]([c]4ccccc4)([c]4ccccc4)[O]CC3O2)n1 (configuration not stated)
inactive: dose: 12.5 mg/kg/injection, schedule: Q01DX005 (ip), vehicle: distilled water + Tween-80 101 % of control | dose: 25.0 mg/kg/injection, schedule: Q01DX005 (ip), vehicle: distilled water + Tween-80 97 % of control | dose: 100.0 mg/kg/injection, schedule: Q01DX005 (ip), vehicle: distilled water + Tween-80 88 % of control | dose: 200.0 mg/kg/injection, schedule: Q01DX005 (ip), vehicle: distilled water + Tween-80 95 % of control

Clc1ncnc2c1ncn2C1CCCCO1 (configuration not stated)
inactive: dose: 176.0 mg/kg/injection, schedule: Q01DX009 (ip), vehicle: other 117 % of control

CC([NH-])c1ccccc1.[Cl][Pt]([Cl])[Cl] (configuration not stated)
inactive: [8] 101 % of control | [9] 100 % of control | [10] 101 % of control

CN(C)CCSc1cc(O)c2c(c1O)C(=O)c1ccccc1C2=O
inactive: dose: 25.0 mg/kg/injection, schedule: Q01DX009 (ip), vehicle: water 95 % of control | dose: 50.0 mg/kg/injection, schedule: Q01DX009 (ip), vehicle: water 98 % of control | dose: 100.0 mg/kg/injection, schedule: Q01DX009 (ip), vehicle: water 92 % of control | dose: 200.0 mg/kg/injection, schedule: Q01DX009 (ip), vehicle: water 95 % of control

CC(C)C1CCC(C)(Cl)C2CCC(C)(Cl)CC12 (configuration not stated)
inactive: [4] 96 % of control | [8] 104 % of control | [6] 91 % of control | [9] 102 % of control | [7] 93 % of control | [10] 95 % of control

N\C([S-])=N/N=C\C(=N/N=C(\N)[S-])C(O)C(O)C(O)CO.[Pd+2] (configuration not stated)
inactive: [5] 112 % of control | [1] 104 % of control | [2] 89 % of control

O=C(/C=C(/c1ccccc1)P(=O)(c1ccccc1)c1ccccc1)c1ccccc1
inactive: [4] 98 % of control | [6] 93 % of control | [7] 88 % of control

Cc1ccc(C(=O)O)cc1
inactive: [4] 101 % of control | [6] 93 % of control | [7] 97 % of control

CCN(CC)c1ccc2cc(-c3nc4ccccc4n3C)c(=O)oc2c1
inactive: dose: 3.13 mg/kg/injection, schedule: Q01DX009 (ip), vehicle: Klucel (hydroxypropylcellulose) (HPC) 90 % of control | dose: 6.25 mg/kg/injection, schedule: Q01DX009 (ip), vehicle: Klucel (hydroxypropylcellulose) (HPC) 91 % of control and 93 % of control and 96 % of control | dose: 12.5 mg/kg/injection, schedule: Q01DX009 (ip), vehicle: Klucel (hydroxypropylcellulose) (HPC) 93 % of control and 96 % of control and 103 % of control | dose: 50.0 mg/kg/injection, schedule: Q01DX009 (ip), vehicle: Klucel (hydroxypropylcellulose) (HPC) 120 % of control and 121 % of control and 103 % of control

COC(=O)C#CBr
inactive: dose: 6.25 mg/kg/injection, schedule: Q04DX003 (ip), vehicle: other 103 % of control | dose: 12.5 mg/kg/injection, schedule: Q04DX003 (ip), vehicle: other 96 % of control

COC1(OC)C2(Cl)CCC1(Cl)CC2
inactive: dose: 50.0 mg/kg/injection, schedule: Q01DX001 (ip), vehicle: saline 103 % of control | dose: 100.0 mg/kg/injection, schedule: Q01DX001 (ip), vehicle: saline 113 % of control | dose: 200.0 mg/kg/injection, schedule: Q01DX001 (ip), vehicle: saline 102 % of control

CN(C)S(=O)(=O)Oc1ccccc1[N+](=O)[O-]
inactive: [1] 100 % of control | [2] 97 % of control | [3] 98 % of control
